Like-named read-outs stand apart in the source and are kept apart here.
Legend:
[1] = target: T1, human recombinant histamine H2 receptor (Homo sapiens, UniProt P25021); assay: Histamine H2 radioligand binding ([125I]Aminopotentidine); settings: for inhibition at 0.3 µM: 0.3 μM compound
T1 construct: expressed in transfected cells; host or cells: CHO-K1 cells
Procedure, shortened: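 Test compounds were assessed for their ability to displace radioligand from the human recombinant histamine H2 receptor. Non-specific binding was determined in the presence of 3 μM Tiotidine, and results were expressed as percent inhibition of specific binding, with 1% DMSO serving as the vehicle.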

[2] = target: T2, human recombinant histamine H1 receptor (Homo sapiens, UniProt P35367); assay: Histamine H1 radioligand binding ([3H]Pyrilamine); settings: for inhibition at 0.01 µM: 10 nM (0.01 μM) compound; for inhibition at 0.1 µM: 0.1 μM compound
T2 construct: expressed in transfected cells; host or cells: CHO cells
T2 sequence (P35367 whole entry): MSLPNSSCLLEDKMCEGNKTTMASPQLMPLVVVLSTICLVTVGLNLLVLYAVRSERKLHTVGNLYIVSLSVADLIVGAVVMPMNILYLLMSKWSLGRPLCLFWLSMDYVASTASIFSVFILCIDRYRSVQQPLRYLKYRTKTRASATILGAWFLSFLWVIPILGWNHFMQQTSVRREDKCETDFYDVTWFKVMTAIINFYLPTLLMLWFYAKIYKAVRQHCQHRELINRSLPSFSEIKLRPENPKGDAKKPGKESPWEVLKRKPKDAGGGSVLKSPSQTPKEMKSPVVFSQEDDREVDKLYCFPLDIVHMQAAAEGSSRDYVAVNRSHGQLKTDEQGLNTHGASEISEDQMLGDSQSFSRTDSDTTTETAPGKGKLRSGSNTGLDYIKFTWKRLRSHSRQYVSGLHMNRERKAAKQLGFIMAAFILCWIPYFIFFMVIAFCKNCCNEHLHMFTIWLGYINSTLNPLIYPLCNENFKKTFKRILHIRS
Procedure, shortened: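 Receptor expressed in CHO cells, assayed in 50 mM Tris-HCl pH 7.4 with 2 mM MgCl2, 100 mM NaCl, 250 mM sucrose. Compounds tested at 1 μM in 1% DMSO; non-specific binding set with 1 μM pyrilamine. Filter-bound radioactivity counted; values are percent inhibition of specific binding.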

[3] = target: T3, human recombinant serotonin (5-Hydroxytryptamine) 5-HT2A receptor (Homo sapiens, UniProt P28223); assay: Serotonin 5-HT2A radioligand binding ([3H]Ketanserin); design: Inhibition of ligand binding, Ser. 5-HT2A: concentration or dose not given beside the values; settings: for Inhibition of ligand binding, Ser. 5-HT2A: percent inhibition of specific binding; for inhibition at 1 µM: read-out: Inhibition of ligand binding, Ser. 5-HT2A (percent inhibition of specific binding)
T3 construct: expressed in transfected cells; host or cells: CHO-K1 cells
T3 sequence (P28223 whole entry): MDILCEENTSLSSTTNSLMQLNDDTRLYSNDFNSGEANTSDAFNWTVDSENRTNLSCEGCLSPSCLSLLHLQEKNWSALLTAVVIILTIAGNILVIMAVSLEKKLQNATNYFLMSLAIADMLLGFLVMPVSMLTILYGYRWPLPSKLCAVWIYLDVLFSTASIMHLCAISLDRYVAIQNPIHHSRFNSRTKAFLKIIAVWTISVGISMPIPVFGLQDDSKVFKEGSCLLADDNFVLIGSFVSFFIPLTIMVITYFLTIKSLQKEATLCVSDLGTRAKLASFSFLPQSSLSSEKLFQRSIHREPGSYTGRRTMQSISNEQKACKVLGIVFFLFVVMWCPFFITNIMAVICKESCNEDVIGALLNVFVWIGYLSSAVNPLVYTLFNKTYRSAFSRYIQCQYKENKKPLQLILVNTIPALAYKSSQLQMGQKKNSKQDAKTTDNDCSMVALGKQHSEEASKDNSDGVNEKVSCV
Protocol: Compounds of the invention were incubated with 0.5 nM [^3H]Ketanserin for 60 minutes at 25° C. Non-specific binding was estimated in the presence of 1 μM Mianserin. Receptor proteins were filtered and washed, the filters were then counted to determine [^3H]Ketanserin specifically bound. […] Biochemical assay results are presented as the percent inhibition of specific binding in Table 6.

[4] = target: T4, human recombinant dopamine D2L receptor (Homo sapiens, UniProt P14416); assay: Dopamine D2L radioligand binding ([3H]Spiperone); settings: for Inhibition of ligand binding, Dop. D2L: percent inhibition of specific binding; for inhibition at 1 µM: compounds screened at 1 μM, read-out: Inhibition of ligand binding, Dop. D2L (percent inhibition of specific binding)
T4 construct: expressed in transfected cells; host or cells: CHO cells
T4 sequence (P14416 whole entry): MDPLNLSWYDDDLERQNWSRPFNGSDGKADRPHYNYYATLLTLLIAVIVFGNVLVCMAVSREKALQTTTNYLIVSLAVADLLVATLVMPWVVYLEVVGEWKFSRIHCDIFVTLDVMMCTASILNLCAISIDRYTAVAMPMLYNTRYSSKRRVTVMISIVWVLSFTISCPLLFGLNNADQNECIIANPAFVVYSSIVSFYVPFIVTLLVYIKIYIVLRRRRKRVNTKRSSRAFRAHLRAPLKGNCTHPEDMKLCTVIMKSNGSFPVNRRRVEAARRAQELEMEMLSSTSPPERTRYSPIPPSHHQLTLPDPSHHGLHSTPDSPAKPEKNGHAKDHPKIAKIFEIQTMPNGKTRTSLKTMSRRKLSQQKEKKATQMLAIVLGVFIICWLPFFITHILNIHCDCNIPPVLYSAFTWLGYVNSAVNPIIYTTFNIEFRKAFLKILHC
Protocol: Non-specific binding was estimated in the presence of 10 μM Haloperidol. Receptor proteins were filtered and washed, the filters were then counted to determine [^3H]Spiperone specifically bound. […] Biochemical assay results are presented as the percent inhibition of specific binding in Table 6.

[5] = target: T5, human recombinant adrenergic α2A receptor (Homo sapiens, UniProt P08913); assay: Adrenergic α2A radioligand binding ([3H]MK-912); design: Inhibition of ligand binding, Adren. alpha2A: concentration or dose not given beside the values; settings: for Inhibition of ligand binding, Adren. alpha2A: percent inhibition of specific binding; for inhibition at 1 µM: compounds screened at 1 μM, read-out: Inhibition of ligand binding, Adren. alpha2A (percent inhibition of specific binding)
T5 construct: expressed in transfected cells; host or cells: insect Sf9 cells
T5 sequence (P08913 1-465): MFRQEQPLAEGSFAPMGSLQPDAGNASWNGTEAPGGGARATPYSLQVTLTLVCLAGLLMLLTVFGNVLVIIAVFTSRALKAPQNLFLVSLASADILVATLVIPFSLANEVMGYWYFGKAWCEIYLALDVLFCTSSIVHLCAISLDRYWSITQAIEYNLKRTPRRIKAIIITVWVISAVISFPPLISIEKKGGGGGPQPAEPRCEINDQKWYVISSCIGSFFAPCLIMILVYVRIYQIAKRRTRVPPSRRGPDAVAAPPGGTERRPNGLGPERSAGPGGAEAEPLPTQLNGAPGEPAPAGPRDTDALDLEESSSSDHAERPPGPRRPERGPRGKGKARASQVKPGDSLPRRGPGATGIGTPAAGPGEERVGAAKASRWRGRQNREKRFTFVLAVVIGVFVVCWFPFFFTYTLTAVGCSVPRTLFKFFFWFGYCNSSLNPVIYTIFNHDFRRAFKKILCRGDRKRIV
Procedure, shortened: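 Membranes from Sf9 cells expressing the receptor were incubated with 1 nM [3H]MK-912 for 60 minutes at 25° C in 50 mM Tris-HCl pH 7.4, 12.5 mM MgCl2, 2 mM EDTA. 10 μM WB-4101 defined non-specific binding. Values are percent inhibition of specific bound radioactivity after filtration.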

[6] = percent inhibition of specific binding, screened at 1 μM, read-out: Inhibition of ligand binding, Hist. H2
[7] = percent inhibition of specific binding, screened at 1 μM, read-out: Inhibition of ligand binding, Hist. H1
[8] = compounds screened at 1 μM, read-out: Inhibition of ligand binding, Hist. H2 (percent inhibition of specific binding)
[9] = compounds screened at 1 μM, read-out: Inhibition of ligand binding, Hist. H1 (percent inhibition of specific binding)
[10] = 1 μM compound, 0.1 nM [125I]Aminopotentidine, read-out: Histamine Binding H2, percent inhibition of specific binding
[11] = 1 μM compound, […] [3H]Pyrilamine, read-out: Histamine Binding H1, percent inhibition of specific binding
[12] = 0.1 nM [125I]Aminopotentidine, read-out: Histamine Binding H2, percent inhibition of specific binding
[13] = […] [3H]Pyrilamine, read-out: Histamine Binding H1, percent inhibition of specific binding

T1 sequence (P25021 whole entry): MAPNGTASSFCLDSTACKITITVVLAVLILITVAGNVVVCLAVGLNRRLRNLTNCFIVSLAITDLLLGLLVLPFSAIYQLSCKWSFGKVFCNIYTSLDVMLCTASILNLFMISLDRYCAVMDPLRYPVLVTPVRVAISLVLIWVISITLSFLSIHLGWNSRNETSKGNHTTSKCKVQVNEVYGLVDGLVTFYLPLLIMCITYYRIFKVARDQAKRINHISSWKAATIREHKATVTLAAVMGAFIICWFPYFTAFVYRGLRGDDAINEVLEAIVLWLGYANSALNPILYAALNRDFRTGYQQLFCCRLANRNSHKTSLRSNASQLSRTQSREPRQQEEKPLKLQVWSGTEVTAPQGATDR

| Compound | inhibition at 1 µM [1, 6] [%] | inhibition at 1 µM [2, 7] [%] | Inhibition of ligand binding, Ser. 5-HT2A [3] [%] | Inhibition of ligand binding, Dop. D2L [4] [%] | Inhibition of ligand binding, Adren. alpha2A [5] [%] | inhibition at 1 µM [1, 8] [%] | inhibition at 1 µM [2, 9] [%] | inhibition at 1 µM [3] [%] | inhibition at 1 µM [4] [%] | inhibition at 1 µM [5] [%] | inhibition at 1 µM [1, 10] [%] | inhibition at 1 µM [2, 11] [%] | also measured |
| --- | --- | --- | --- | --- | --- | --- | --- | --- | --- | --- | --- | --- | --- |
| Cc1ccc2c(c1)c1c(n2CCc2cnc(C)nc2)CCN(C)C1 [Compound 323, 2,3,4,5-tetrahydro-2,8-dimethyl-5-(2-(2-methylpyrimidin-5-yl)ethyl)-1H-pyrido[4,3-b]indole] | 17 | 93 | 16 | 8 | 6 |  |  |  |  |  |  |  |  |
| CN1CCc2c(c3cc(Cl)ccc3n2CCc2noc(-c3ccccc3)n2)C1 [Compound C4-6] |  |  |  |  |  | 68 | 100 | 99 | 36 | 96 |  |  |  |
| CN1CCc2c(c3cc(Cl)ccc3n2CCC(=O)N2CCCCC2)C1 [Compound 326, 3-(8-chloro-1,2,3,4-tetrahydro-2-methylpyrido[4,3-b]indol-5-yl)-1-(piperidin-1-yl)propan-1-one] | 12 | 47 | 27 | −5 | 55 |  |  |  |  |  |  |  |  |
| Cc1ccc2c(c1)c1c(n2CCc2ccc(OC(C)(C)C)cc2)CCN(C)C1 [Compound 335, 5-(4-tert-butoxyphenethyl)-2,3,4,5-tetrahydro-2,8-dimethyl-1H-pyrido[4,3-b]indole] | 77 | 96 | 97 | 44 | 31 |  |  |  |  |  |  |  |  |
| Cc1ccc(CCn2c3c(c4cc(Br)ccc42)CN(C)CC3)cn1 [Compound 487, 8-bromo-2-methyl-5-(2-(6-methylpyridin-3-yl)ethyl)-2,3,4,5-tetrahydro-1H-pyrido[4,3-b]indole] |  |  |  |  |  | 80 | 98 | 87 | 42 | 88 |  |  |  |
| Cc1ccc2c(c1)c1c(n2CCc2cnc(C)cn2)CCN(C)C1 [Compound 322, 2,8-dimethyl-5-(2-(5-methylpyrazin-2-yl)ethyl)-2,3,4,5-tetrahydro-1H-pyrido[4,3-b]indole] | 20 | 89 | 64 | 5 | 44 |  |  |  |  |  |  |  |  |
| CCOC(=O)N1CCc2c(c3cc(C)ccc3n2CCc2ccccc2)C1 [Compound 24, ethyl 3,4-dihydro-8-methyl-5-phenethyl-1H-pyrido[4,3-b]indole-2(5H)-carboxylate] | 13 | -4 | −2 | 3 | 7 |  |  |  |  |  | 13 | -4 |  |
| Cc1ccc2c(c1)c1c(n2CCc2ccncc2)CCN(C)C1 [Compound 22, 2,3,4,5-tetrahydro-2,8-dimethyl-5-(2-(pyridin-4-yl)ethyl)-1H-pyrido[4,3-b]indole] | 53 | 100 | 81 | 27 | 72 |  |  |  |  |  | 49 | 100 | inhibition at 0.3 µM [1, 12]: 29%; inhibition at 0.01 µM [2, 13]: 36%; inhibition at 0.03 µM ([2]; 0.03 μM compound, […] [3H]Pyrilamine, read-out: Histamine Binding H1, percent inhibition of specific binding): 63% |
| Cc1ccc(CCn2c3c(c4cc(I)ccc42)CN(C)CC3)cn1 [Compound 485, 2,3,4,5-tetrahydro-8-iodo-2-methyl-5-(2-(6-methylpyridin-3-yl)ethyl)-1H-pyrido[4,3-b]indole] |  |  |  |  |  | 71 | 105 | 69 | 43 | 86 |  |  |  |
| CCOC(=O)N1CCc2c(c3cc(Br)ccc3n2CCc2ccc(C)nc2)C1 [Compound 18, ethyl 8-bromo-3,4-dihydro-5-(2-(6-methylpyridin-3-yl)ethyl)-1H-pyrido[4,3-b]indole-2(5H)-carboxylate] | 1 | -14 | 5 | −7 | −10 |  |  |  |  |  | 1 | -14 |  |
| CN1CCc2c(c3ncccc3n2CCc2ccncc2)C1 [Compound 482, 9-aza-2-methyl-5-(2-(pyridin-4-yl)ethyl)-2,3,4,5-tetrahydro-1H-pyrido[4,3-b]indole] |  |  |  |  |  | -9 | -2 | -7 | 7 | -17 |  |  |  |
| CN1CCc2c(c3cc(Br)ccc3n2CC(=O)N2CCCCC2)C1 [Compound 516, 2-(8-bromo-2-methyl-3,4-dihydro-1H-pyrido[4,3-b]indol-5(2H)-yl)-1-(piperidin-1-yl)ethanone] |  |  |  |  |  | 12 | 49 | 6 | -4 | 3 |  |  |  |
| Cc1ccc2c(c1)c1c(n2CCc2ccccc2)CCN(C)C1 [Compound 20, 2,3,4,5-tetrahydro-2,8-dimethyl-5-phenethyl-1H-pyrido[4,3-b]indole] | 87 | 97 | 98 | 87 | 98 |  |  |  |  |  | 72 | 97 | inhibition at 0.1 µM ([1]; 0.1 μM compound, 0.1 nM [125I]Aminopotentidine, read-out: Histamine Binding H2, percent inhibition of specific binding): 33%; inhibition at 0.3 µM [1, 12]: 51%; inhibition at 0.004 µM ([2]; 4 nM compound, […] [3H]Pyrilamine, read-out: Histamine Binding H1, percent inhibition of specific binding): 34%; inhibition at 0.02 µM ([2]; 0.02 μM compound, […] [3H]Pyrilamine, read-out: Histamine Binding H1, percent inhibition of specific binding): 73%; inhibition at 0.1 µM [2, 13]: 93% |
| Cc1ccc2c(c1)c1c(n2CCc2ccccc2F)CCN(C)C1 [Compound 34, 5-(2-fluorophenethyl)-2,3,4,5-tetrahydro-2,8-dimethyl-1H-pyrido[4,3-b]indole] | 89 | 96 | 99 | 88 | 99 |  |  |  |  |  | 89 | 96 | inhibition at 0.01 µM [2, 13]: 22%; inhibition at 0.1 µM [2, 13]: 67% |
| CN1CCc2c(c3ccccc3n2CCc2noc(-c3ccccc3)n2)C1 [Compound C4-1] |  |  |  |  |  | 47 | 93 | 96 | 14 | 95 |  |  |  |
| CN1CCc2c(c3cc(Cl)ccc3n2CCCc2ccc(C(F)(F)F)nc2)C1 [Compound 324, 8-chloro-5-(3-(6-(trifluoromethyl)pyridin-3-yl)propyl)-2,3,4,5-tetrahydro-2-methyl-1H-pyrido[4,3-b]indole] | 63 | 101 | 86 | 28 | 60 |  |  |  |  |  |  |  |  |

Reference: patent US9096591B2, “Tetracyclic compounds” (Medivation Technologies, Inc., priority 2007, dated 2015)
